# Earlier results, collected in patent US10918604B2, “Solid oral dosage forms of eslicarbazepine” (Jubilant Generics Limited, priority 2015, dated 2021).
# Conditions: reported in background
structure (smiles),measurement,value
"CC(=O)O[C@H]1Cc2ccccc2N(C(N)=O)c2ccccc21 [Eslicarbazepine acetate, (S)-10-acetoxy-10,11-dihydro-5H-dibenzo[b,f]azepine-5-carboxamide]",solubility in water,poorly soluble in water
